The values below come from patent US20230063109A1, “MIXTURES COMPRISING NITRIFICATION INHIBITORS AND CARRIERS” (BASF SE, priority 2020, published 2023).

This experiment concerns nitrification in soil (microbial biomass). In words: Incubation experiment: measurement of the nitrification-inhibiting effect in soil (NH4—N recovery). The conditions noted are these: overall summary of the experiments. The procedure: In all treatments the same nitrogen as well as the same AI (active ingredient) amounts were applied. In case of the two tested nitrification inhibitors DMPP and DMPSA it was 1% NI (nitrification inhibitor) related to the sum of NH2—N and NH4—N of the corresponding carrier fertilizer. In case of physical mixtures, in which only one part of the fertilizers was treated with a NI, the concentrations of the corresponding AI were higher so that the overall amounts of NI were the same as in the control treatment.
100 g soil (incubated at 20° C. for two weeks to activate the microbial biomass) is filled into 500 ml plastic bottles (e.g. soil sampled from the field) and is moistened to 50% water holding capacity. The fertilizers are treated with the respective products containing the compositions and mixtures of the invention in the appropriate concentration.
Granules of the treated fertilizers are evenly distributed to the soil. The amount of fertilizer which is applied corresponds to 10 mg of reduced nitrogen per bottle.
The bottles are capped loosely to allow air exchange. The bottles are then incubated at 20° C. for 28 days.
For analysis, 300 mL of a 1% K2SO4-solution is added to the bottle containing the soil and shaken for 2 hours in a horizontal shaker at 150 rpm. […] The ammonium contents of the filtrates are analyzed with an autoanalyzer at 550 nm (Merck, AA11).

Consider “3,4-dimethyl pyrazole phosphate and/or 4,5-dimethyl pyrazole phosphate [DMPP]”, for which the “inhibition of nitrification (in words)” value is “sufficiently be inhibited”.
In the case of “2-(3,4-dimethyl-1H-pyrazol-1-yl)succinic acid and/or 2-(4,5-dimethyl-1H-pyrazol-1-yl)succinic acid [DMPSA]” it was “sufficiently be inhibited”.
